Source: US20160257697A1, “THIOPHENE-SUBSTITUTED TETRACYCLIC COMPOUNDS AND METHODS OFUSE THEREOF FOR THE TREATMENT OF VIRAL DISEASES” (priority 2013, published 2016)
Where two headings read alike, the source gives them in different places.

Key:
Experiment in all cases: microbe, parasite or virus in culture
Assay type in all cases: cell-based, Hepatitis C virus (HCV)
Conditions in all cases: Replicon Assay A
HCV replicon 2B = test system: HCV replicon 2B
Method in brief: (§1)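 Read-out is replicon RNA per cell by real-time RT-PCR, normalised to cyclophilin mRNA amplified in the same well. Cells were exposed to compound for 3 days at 2000 cells/well in medium with 5% fetal bovine serum and 0.5% DMSO.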

HCV replicon 1A = test system: HCV replicon 1A
Method in brief: as §1

HCV replicon 1AY93H = test system: HCV replicon 1AY93H
Method in brief: as §1

[1] = read-out: 2B IC50, HCV replicon 2B
[2] = read-out: 1A Y93H IC50, replicon 1AY93H
[3] = Hepatitis C virus, read-out: 2B IC50 (nM), replicon 2B
[4] = Hepatitis C virus, read-out: 1A Y93H IC50 (nM), replicon 1AY93H
[5] = Hepatitis C virus, read-out: 1A Y93H IC50, HCV replicon 1A Y93H

SMILES | IC50 (HCV replicon 2B; read-out: 2B IC50, replicon 2B) [nM] | IC50 (HCV replicon 1A; replicon 1A) [pM] | IC50 (HCV replicon 1AY93H; [2]) [nM] | IC50 (HCV replicon 1A; Hepatitis C virus, replicon 1A) [pM] | further results
COC(=O)N[C@H](C(=O)N1CCC[C@H]1c1ncc(-c2cc(F)c3c(c2)OC(c2scc4c2OCCO4)n2c-3cc3cc(-c4cnc([C@@H]5C[C@H](F)CN5C(=O)[C@@H](NC(=O)OC)C(C)C)[nH]4)ccc32)[nH]1)C(C)C (single isomer, unassigned) [Compound 527] |  |  |  |  | IC50 (HCV replicon 2B; [1]): 33.3 nM; IC50 (HCV replicon 1A; HCV replicon 1A): 15.5 pM; IC50 (HCV replicon 1AY93H; read-out: 1A Y93H IC50, HCV replicon 1A Y93H): 3.06 nM
CCc1ccc(C2Oc3cc(-c4cnc([C@@H]5CCCN5C(=O)C(NC(=O)OC)C5CCOC(C)(C)C5)[nH]4)cc(F)c3-c3cc4cc(-c5cnc([C@@H]6CCCN6C(=O)[C@@H](NC(=O)OC)C(C)C)[nH]5)ccc4n32)s1 (single isomer, unassigned) [Compound 158] | 0.43 | 3.3 | 1.07 |  | 
COC(=O)N[C@H](C(=O)N1CCC[C@H]1c1ncc(-c2cc(F)c3c(c2)OC(c2cc4c(s2)CCCC4)n2c-3cc3cc(-c4cnc([C@@H]5CCCN5C(=O)[C@@H](NC(=O)OC)C(C)C)[nH]4)ccc32)[nH]1)C(C)C (single isomer, unassigned) [Compound 55] |  |  |  | 1.9 | IC50 (HCV replicon 2B; [3]): 2.53 nM; IC50 (HCV replicon 1AY93H; [4]): 3.26 nM
COC(=O)N[C@H](C(=O)N1CCC[C@H]1c1ncc(-c2ccc3c(c2)OC(c2ccc(C4CC4)s2)n2c-3c(C)c3cc(-c4cnc([C@@H]5CCCN5C(=O)[C@@H](NC(=O)OC)C(C)C)[nH]4)ccc32)[nH]1)C(C)C (single isomer, unassigned) [Compound 22] | 1.84 | 2 | 1.38 |  | 
CCc1ccc(C2Oc3cc(-c4cnc([C@@H]5CCCN5C(=O)C(NC(=O)OC)C5CCOC(C)(C)C5)[nH]4)cc(F)c3-c3cc4cc(-c5cnc([C@@H]6CCCN6C(=O)[C@@H](NC(=O)OC)C(C)C)[nH]5)ccc4n32)s1 (single isomer, unassigned) [Compound 159] | 0.45 | 2.5 | 0.77 |  | 
COC(=O)NC(C(=O)N1CCC[C@H]1c1ncc(-c2ccc3c(c2)cc2n3C(c3ccc(C4CC4)s3)Oc3cc(-c4cnc([C@@H]5CCCN5C(=O)[C@@H](NC(=O)OC)C(C)C)[nH]4)cc(F)c3-2)[nH]1)C1CN(C(=O)C2CC2)C1 (single isomer, unassigned) [Compound 269] | 0.25 | 2.6 | 0.28 |  | 
CCc1ccc(C2Oc3cc(-c4cnc(C5CCCN5C(=O)C(NC(=O)OC)C5C[C@@H](C)O[C@@H](C)C5)[nH]4)ccc3-c3cc4c(F)c(-c5cnc([C@@H]6CCCN6C(=O)[C@@H](NC(=O)OC)C(C)C)[nH]5)ccc4n32)s1 (single isomer, unassigned) [Compound 358] | 2.49 |  | 2.62 | 4.7 | 
COC(=O)N[C@H](C(=O)N1CCC[C@H]1c1ncc(-c2cc(F)c3c(c2)OC(c2ccc(C4CC4)s2)n2c-3cc3cc(-c4cnc([C@@H]5C[C@@H](F)CN5C(=O)[C@@H](c5ccccc5)N5CCC5)[nH]4)ccc32)[nH]1)C(C)C (mixture of isomers) [Compound 109] |  |  |  | 5.8 | IC50 (HCV replicon 2B; [3]): 24.4 nM; IC50 (HCV replicon 1AY93H; [4]): 4.5 nM
CCc1ccc(C2Oc3cc(-c4cnc([C@@H]5CCCN5C(=O)C(NC(=O)OC)C5CCOC(C)(C)C5)[nH]4)cc(F)c3-c3cc4cc(-c5cnc([C@@H]6CCCN6C(=O)[C@@H](NC(=O)OC)C(C)C)[nH]5)ccc4n32)s1 (single isomer, unassigned) [Compound 164] | 0.53 | 1.5 | 0.13 |  | 
COC(=O)N[C@H](C(=O)N1CCC[C@H]1c1ncc(-c2ccc3c(c2)O[C@@H](c2cc4cc(OC)ccc4s2)n2c-3cc3cc(-c4cnc([C@@H]5CCCN5C(=O)[C@@H](NC(=O)OC)C(C)C)[nH]4)ccc32)[nH]1)C(C)C [Compound 758] |  |  |  |  | IC50 (HCV replicon 2B; Hepatitis C virus, read-out: 2B IC50, HCV replicon 2B): 0.43 nM; IC50 (HCV replicon 1A; Hepatitis C virus, HCV replicon 1A): 5 pM; IC50 (HCV replicon 1AY93H; [5]): 0.17 nM
COC(=O)N[C@H](C(=O)N1CCC[C@H]1c1ncc(-c2cc(F)c3c(c2)OC(c2scc4c2OCCO4)n2c-3cc3cc(-c4cnc([C@@H]5CCCN5C(=O)[C@@H](NC(=O)OC)C(C)C)[nH]4)ccc32)[nH]1)C(C)C (single isomer, unassigned) [Compound 523] |  |  |  |  | IC50 (HCV replicon 2B; [1]): 12.4 nM; IC50 (HCV replicon 1A; HCV replicon 1A): 3.2 pM; IC50 (HCV replicon 1AY93H; [5]): 11.7 nM
CCCc1ccc(C2Oc3cc(-c4cnc([C@@H]5CCCN5C(=O)[C@@H](NC(=O)OC)C(C)C)[nH]4)cc(F)c3-c3cc4cc(-c5cnc([C@@H]6CCCN6C(=O)[C@@H](NC(=O)OC)C(C)C)[nH]5)ccc4n32)s1 (single isomer, unassigned) [Compound 33] |  |  |  | 1.8 | IC50 (HCV replicon 2B; [3]): 1.89 nM; IC50 (HCV replicon 1AY93H; [4]): 0.28 nM
COC(=O)NC(C(=O)N1CCC[C@H]1c1ncc(-c2ccc3c(c2)cc2n3C(c3ccc(C(C)C)s3)Oc3cc(-c4cnc([C@@H]5CCCN5C(=O)[C@@H](NC(=O)OC)C(C)C)[nH]4)cc(F)c3-2)[nH]1)C1CCOC(C)(C)C1 (single isomer, unassigned) [Compound 238] | 7.05 | 130 | 3.12 |  | 
